Patent US7884131B2, “Oxylipins from long chain polyunsaturated fatty acids and methods of making and using the same” (Martek Biosciences, Corporation, priority 2004, dated 2011)
Entries after “also recorded” stand apart in the source; their conditions may differ.

Columns and labels:
Soybean 15-lipoxygenase = biological target: T1, Soybean 15-lipoxygenase (Glycine max, UniProt P08170); assay: 15-lipoxygenase reaction with LCPUFA substrates; format: biochemical; settings: 100 μM fatty acid, 4 μg/ml enzyme, 0.05M sodium borate buffer pH 9.0, 0° C., absorbance at 238 nm
T1 construct: purchased Sigma-Aldrich
T1 sequence (P08170 1-839): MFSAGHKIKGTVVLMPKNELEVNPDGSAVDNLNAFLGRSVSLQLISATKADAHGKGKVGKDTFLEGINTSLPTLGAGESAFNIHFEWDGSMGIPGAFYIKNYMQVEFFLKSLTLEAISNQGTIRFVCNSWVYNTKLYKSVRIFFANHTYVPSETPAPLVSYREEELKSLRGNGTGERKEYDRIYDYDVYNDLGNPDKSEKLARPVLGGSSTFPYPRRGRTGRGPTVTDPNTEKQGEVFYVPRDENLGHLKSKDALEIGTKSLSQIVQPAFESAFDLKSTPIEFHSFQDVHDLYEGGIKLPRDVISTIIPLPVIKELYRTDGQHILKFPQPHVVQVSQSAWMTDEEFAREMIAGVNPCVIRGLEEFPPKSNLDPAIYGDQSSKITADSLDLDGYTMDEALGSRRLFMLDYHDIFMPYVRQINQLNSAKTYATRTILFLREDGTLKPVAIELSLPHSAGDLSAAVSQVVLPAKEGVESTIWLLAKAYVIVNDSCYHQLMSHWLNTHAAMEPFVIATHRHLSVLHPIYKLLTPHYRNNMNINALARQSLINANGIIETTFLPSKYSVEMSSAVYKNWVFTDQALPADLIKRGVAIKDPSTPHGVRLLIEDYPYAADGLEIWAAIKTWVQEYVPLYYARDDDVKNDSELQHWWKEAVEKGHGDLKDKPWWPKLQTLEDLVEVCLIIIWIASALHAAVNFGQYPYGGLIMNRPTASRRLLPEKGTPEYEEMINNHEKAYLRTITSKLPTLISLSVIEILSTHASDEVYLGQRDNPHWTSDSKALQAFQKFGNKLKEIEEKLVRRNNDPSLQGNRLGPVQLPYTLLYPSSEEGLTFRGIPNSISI
Method: Soybean 15-lipoxygenase (Sigma-Aldrich, St. Louis, Mo.) at a final concentration of 4 μg/ml was mixed into 100 μM solutions of DHA, DPAn-6, or DPAn-3 (NuChek Prep, Elysian, Minn.) in 0.05M sodium borate buffer, pH 9.0, and the reaction mixtures were incubated at 0° C. Appearance of the mono-hydroxy conjugated diene derivatives of the fatty acids was monitored through absorbance at 238 nm. Conjugated diene products were quantified using an extinction coefficient of 28,000 M^−1cm^−1 (Shimizu et al; Methods in Enzymology, 1990 Vol 187, 296-306). As shown in Example. 1, 100% of the DPAn-6 was efficiently converted to its conjugated diene derivative under these conditions, whereas about 85% of DPAn-3 and 50% of DHA were converted to their respective conjugated diene (mono-hydroxy) derivative by the 15-lipoxygenase. No appreciable accumulation of the dihydroxy derivatives occurred under these reaction conditions.

[1] = system: inflammatory cytokine production; assay: Consumption of LCPUFA oils: inflammatory cytokine production; format: in vivo; settings: consumption of the oil; DHA dose approximately three times higher in DHA alone than in the DHA+DPAn-6 oil
[2] = system: Inflammatory eicosanoid secretion; assay: Consumption of LCPUFA oils: inflammatory eicosanoid secretion; format: in vivo; settings: compared to DHA alone
[3] = system: total cell migration into air pouch exudates; assay: Mouse dorsal air pouch model: total cell migration; format: in vivo, C57/B16 mice; settings: 100 ng docosanoid intra-pouch, 100 ng TNFα, 4 hours after TNFα
From the text: (§1) Pure 17R-hydroxy DHA (17R-HDHA) was purchased from Caymen Chemicals (Ann Arbor, Mich.). Docosanoids 17-hydroxy-DPAn-6 (17-HDPAn-6) and 10,17-dihydroxyDPAn-6 (10,17-HDPAn-6) were synthesized biogenically from DPAn-6 (NuChek Prep, Elysian, Minn.) using soybean 15-lipoxygenase (Sigma-Aldrich) and purified by HPLC as described in Example 2. Organic solvents were evaporated and the compounds were re-dissolved in phosphate buffered saline (PBS), filter sterilized and concentrations were adjusted to 1000 ng/ml using molar extinction coefficients of 28,000 and 40,000 M^−1cm^−1 for the mono- and dihydroxy docosanoids, respectively. Female C57/B16 mice (n=10 mice per group) were injected with sterile air subcutaneously in the back to initiate dorsal air pouches. Six days later, 0.9 ml sterile PBS followed by 100 ng docosanoid in 0.1 ml PBS or PBS alone were administered by intra-pouch injection. This injection was followed within 5 min by intra-pouch injection of 100 ng of mouse recombinant TNFα (Peprotech, Inc, NJ, USA) in 0.1 ml PBS. Control animals received no TNFα. As a positive control, 2 mg/kg indomethacin (Calbiochem, San Diego, Calif.) was administered intraperitoneally 30 min prior to administration of TNFα. Four hours after TNFα administration, air pouch exudates were removed and cells were stained with Turk's solution and counted. […]

IL-1β = assay: Mouse dorsal air pouch model: IL-1β in exudates; format: in vivo, C57/B16 mice; settings: 100 ng docosanoid intra-pouch, 100 ng TNFα, 4 hours after TNFα, ELISA
From the text: as §1

[4] = system: macrophage chemotactic protein-1 (MCP-1); assay: Mouse dorsal air pouch model: MCP-1 in exudates; format: in vivo, C57/B16 mice; settings: 100 ng docosanoid intra-pouch, 100 ng TNFα, 4 hours after TNFα, ELISA
From the text: as §1

[5] = system: human T lymphocytes stimulated with anti-CD3/anti-CD28 antibodies; assay: TNFα secretion by human T lymphocytes; format: cell-based; settings: 6 hrs pretreatment, 41 hrs on anti-CD3/anti-CD28 coated wells, ELISA; difference at 10 nM p=0.037
Method: FIG. 22A: Effect of Docosanoids on TNFα Secretion by Human T Lymphocytes. The assay was performed essentially as described in Ariel et al, 2005. Briefly, human peripheral blood mononuclear cells were isolated from venous blood by Ficoll-Paque™ Plus (Amersham biosciences) gradient. T lymphocytes were isolated using a human T cell enrichment column (R&D Systems) per manufacturer's instructions. Purified T cells were treated with 10,17-dihydroxy DPAn-6 or 10,17-dihydroxy DHA or vehicle (0.05% ethanol) in RPMI-1640 media containing 10% heat inactivated fetal bovine serum for 6 hrs at 37° C. Lymphocytes (200,000 cells in 200 μl media per well) were then transferred to 96-well plates coated with both anti-CD3 antibody and anti-CD28 antibody (100 μl of 2 μg/ml of each antibody overnight to coat wells) and incubated for 41 hrs. TNFα concentrations were determined in cell supernatants by ELISA (R&D Systems). Group means±stdev (n=4) were compared by Student's t test. *p<0.05 and **p<0.01 compared to control; # indicates statistical difference (p=0.037) between the groups treated with 10,17-dihydroxy DPAn-6 and 10,17-dihydroxy DHA at the 10 nM concentrations.

[6] = system: Carrageenan-induced hind paw edema; assay: Rat paw edema study with LCPUFA-containing diets; format: in vivo, Sprague Dawley rats; settings: diets fed 4 weeks, 1% carrageenan, 3 hours post-injection, Day 28
Method: Adult, male, Sprague Dawley rats (n=10/treatment group) were fed modified AIN-76 diets formulated to include 1.2% DHA, 1.2% DHA+0.44% DPAn-6, or 1.2% DHA+0.46% arachidonic acid (ARA) for 4 weeks. Carrageenan (1%) was used to induce hind paw edema on Day 14 (left paw) and Day 28 (right paw) of feeding. Edema was measured plethysmographically using water displacement 3 hours post-injection. Similar results were obtained on day 14. *p≦0.05.

Molecule | converted to conjugated diene (mono-hydroxy) derivative by the 15-lipoxygenase (Soybean 15-lipoxygenase) | total number of cells in the air pouch (cell infiltration) [3] | secretion of IL-1β in air pouch exudates (IL-1β) | secretion of MCP-1 in air pouch exudates [4] | further results
CC/C=C\C/C=C\C/C=C\C/C=C\C/C=C\C/C=C\CCC(=O)O [DHA, docosahexaenoic acid (C22:6n-3), reference compound] | ~50% | – | – | – | reduction in inflammatory cytokine production [1]: 13-29%
docosapentaenoic acid (C22:5n-6) [DPAn-6] | 100% | – | – | – | Inflammatory eicosanoid secretion [2]: significantly reduced
10,17-dihydroxy DPAn-6 | – | significant reductions | significant reductions; also recorded: significantly larger than with that produced by either the DHA oxylipin derivative or indomethacin | significant reductions; also recorded: larger inhibition of MCP-1 secretion than indomethacin | reducing TNFα secretion by T lymphocytes [5]: more potent than the DHA analog (10,17,dihydroxy DHA)
CCCCC/C=C\C/C=C\C/C=C\C/C=C\CCCC(=O)O [ARA, arachidonic acid (C20:4n-6)] | – | – | – | – | reduction in edema volume [6]: reversed the anti-inflammatory activity of DHA
CCCCCC(O)/C=C/C=C\C/C=C\C/C=C\C/C=C\CCC(=O)O (stereo not shown) [17-hydroxy DPAn-6] | – | significant reductions; also recorded: more potent than both 17R-hydroxy DHA and indomethacin | significant reductions | significant reductions; also recorded: larger inhibition of MCP-1 secretion than indomethacin | –
CC/C=C\C/C=C\C/C=C\C/C=C\C/C=C\CCCCCC(=O)O [DPAn-3, docosapentaenoic acid (C22:5n-3)] | about 85% | – | – | – | –
